Assay results from US5641666A, “Soraphen A resistant fungi and acetyl-CoA carboxylase” (priority 1993, dated 1997).
Converted amounts (≈) assume the structure as drawn.

Experiments:
bacteria = details: cited from earlier work
[1] = tested on: diploids from the backcrosses of soraphen A resistant yeast strains; test: Determination of the minimal inhibitory concentration (MIC) on YPD-SOR plates, diploids from backcrosses of soraphen A resistant strains; format: cell-based, Saccharomyces cerevisiae; details: diploids from backcrosses vs wild-type
Description: In a first step all of the mutants are backcrossed with the wild-type strain of the opposite mating type, the diploid strains are sporulated and the asci are subjected to tetrad analysis. From each cross at least six complete tetra are examined and all of them are found to segregate 2:2 for soraphen A resistance and soraphen A sensitivity. This indicates mutations at a single genetic locus.
In another step the MIC of the dipbids from the backcrosses is determined.
Yeast colonies are grown for 2 days at 30° C. on a YPD plate and replica pated on a set of YPD-SOR plates. The following soraphen A concentrations are used: 0 μg/ml, 0,35 μg/ml, 0,76 μg/ml, 1,5 μg/ml, 3,13 μg/ml 6,7 μg/ml, 15,45 μg/ml and 54,5 μg/ml. After growth for 24 hours at 30° C. the plates are inspected for growth.

acetyl-CoA carboxylase = details: cited from earlier work
[2] = tested on: strains YS 18 and YHV 18 (culture A); test: Plating of culture A on YPD-SOR-10; format: cell-based, Saccharomyces cerevisiae; details: 10 μg/ml soraphen A, 30° C., 3 days
Description: YPD-SOR-10 is YPD medium supplemented with 10 μg/ml soraphen A.
Each of the isogenic strains YS 18 and YHV 18 is grown in 5 ml of YPD to late exponential phase. The culture is diluted 10^4 fold to give culture A the viable cell number of which is determined. Twenty tubes each containing 5 ml of YPD are inoculated with 10 μl of culture A, which corresponds to about 10 cells, and are incubated at 28° C. until a density of 10^7 cells/ml is attained. 1 ml aliquots of each of the tubes are plated on YPD-SOR-10 and the plates are incubated at 30° C. for 3 days. To ensure isolation of independent mutants from each of the 20 YPD-SOR-10 plates only colonies with different shape or sizes are selected. Mutant colonies are restreaked twice on YPD before storing them as glycerol stock cultures at -70° C.
To exclude the presence of soraphen A resistant routants at the beginning of the cultivation of culture A, the remainder of culture A is plated on YPD-SOR-10 and incubated at 30° C. for 3 days.

fungi = details: cited from earlier work
YS 18 yeast cells = test: Growth curves of yeast in liquid YPD medium with soraphen A (OD600, viable cell titer); format: cell-based, Saccharomyces cerevisiae
Description: Saccharomyces cerevisiae strain YS 18 (MATeα; his 3-11, 3-15; leu 2-3, 2-112; ura 3-Δ5; can^R; cir^+) is chosen as the wild-type. YHV 18 (MATa; his 3-11, 3-15; leu 2-3, 2-112; ura 3-Δ5; canst; cir^+) is isolated after a mating type switch of YS 18 and is therefore isogenic.
100 ml YPD medium in a 500 ml flask is inoculated with about 10^7 YS 18 yeast cells/ml and incubated for growth at 180 rpm at 30° C. Before the addition of soraphen A at time point 0, the cells have already been incubated for 1 hour. The control is treated identically, but receives no soraphen A. Total cell numers are monitored by measuring the OD600. The number of viable cells called the […] is determined by plating on YPD plates. The number of soraphen A resistant cells is counted by plating on YPD-SOR plates containing the same soraphen A concentration as in the flask.

For COC1/C=C/C(C)C2OC(O)(C(C)C(=O)OC(c3ccccc3)CCCCC1OC)C(OC)C(O)C2C (centres unmarked) [soraphen A], the effect on bacteria (bacteria) is listed as “without effect on bacteria”, the “sensitivity of the diploids compared with the wild-type strain” value [1] is listed as “None of the diploids is as sensitive to soraphen A as the wild-type strain” and the “interference with acetyl-CoA carboxylase” value (acetyl-CoA carboxylase) is listed as “shown to interfere with acetyl-CoA carboxylase”. The growth of colonies [2] was “No growth of colonies is observed”, the “activity as a fungicide” value (fungi) was “strong activity as a fungicide” and the MIC (YS 18 yeast cells; Saccharomyces cerevisiae, YS 18 wild-type, YPD, 30° C., 180 rpm, read-out: minimal inhibitory concentration (MIC) as determined from the growth curves) was 0.1 µg/mL (≈ 0.192 µM). For the same molecule, the “duration of complete inhibition of growth” value (YS 18 yeast cells; YS 18, YPD, 30° C., thereafter growth recovers due to soraphen A resistant mutants) was “approximately 40 hours” and the “cell killing (viable cell counts)” value (YS 18 yeast cells; YS 18, during the first 20 hours) was “extensive cell killing occurs”.
